Legend:
[1] = test system: arachidonic acid-induced ear oedema; assay: Mouse ear oedema model (arachidonic acid-induced acute inflammation); format: in vivo, Laca mice; settings: 300 μg per ear topical in acetone, 30 min before arachidonic acid, 1 hour after arachidonic acid
Experimental: Mouse Ear Oedema Model The mouse ear oedema model was performed using Laca mice (25-35 g), of either sex. The animals were sedated with fentanyl/fluanisone (Hypnorn, Janssen). One ear was treated by the topical application of one of a range of test compounds or dexamethasone (all at 300 μg per ear in acetone). After 30 minutes, oedema was induced by the topical application of arachidonic acid (10 μl at 0.4 g/ml in acetone). The width of each ear was measured, both before and 60 minutes after the induction of oedema, using a micrometer screw gauge. Ear oedema was calculated by comparing the ear width before and after induction of oedema and expressed as percentage normal. Values are expressed as the percentage increase in ear thickness 1 hour after administration of archidonic acid and solvent controls (n=6 except Compound IV, n=4). Acute Inflammation—Mouse Ear

mast cells = assay: Histamine release assay (mast cell stabilisation, compound 48/80-induced histamine release); format: cell-based, Female Wistar rats; settings: rat peritoneal mast cells, 2×10^−5 M test compound, stimulated with Compound 48/80, n=5, read-out: % inhibition of histamine Release (±S.E.M.)
Experimental: The compounds were assessed for their ability to stabilise mast cell membranes in vitro. Mast cells treated with the compounds and untreated mast cells were stimulated to release histamine. A reduction in histamine release by the treated cells compared to the untreated cells indicates stabilisation of the membranes.
The buffered salt solution (BSS) was prepared in advance (NaCl 137 mM; KCl 2.7 mM; MgCl2 1.0 mM; CaCl2 0.5 mM; NaH2PO4 0.4 mM; Glucose 5.6 mM; HEPES 10 mM). This was dispensed into test tubes and heated to 37° C. each test tube contained 4.5 ml BSS. The solvent blank was supplemented with 0.5% (v/v) dimethyl sulphoxide (DMSO) or 0.5% (v/v) distilled water (dH2O). […]
To 2 ml of supernatent from each tube was added 0.4 ml of 1 M NaOH and 0.1 ml oPT (1% (w/v) in methanol). […] The presence of the fluorescent product of the reaction was measured using a Shimadzu RF-1501 spectrofluorophotometer set at λex=360 nm, λem=450 nm.
Each drug was tested on at least five animals (n=5). The results were expressed as a percentage of maximum inhibition of compound 48/80 induced-histamine release in the solvent blank sample. […] The basal histamine release in untreated cells was noted, expressed as a percentage of the total histamine content of the cells in suspension.

[2] = first set, solvent control 69.0
[3] = second set, solvent control 79.6

| SMILES | Mean % (percentage increase in ear thickness) [1, 2] [%] | Mean % (percentage increase in ear thickness) [1, 3] [%] | inhibition at 20 µM (mast cells) [%] |
| --- | --- | --- | --- |
| O=C(CC1(C2=Cc3ccccc3C2)Cc2ccccc2C1=O)c1ccccc1 (stereo not shown) [Compound I, 1-phenyl-2-((2′-iidenyl)-indan-2-onyl)ethan-1-one] | 49.3 | – | – |
| OC(CC1(C2=Cc3ccccc3C2)Cc2ccccc2C1O)c1ccccc1 (stereo not shown) [Compound II, 1-phenyl-2-((2′-iindenyl)-indan-2-ol)ethan-1-ol] | – | 17.7 | 53.5 ± 2.53 |
| O=C(CC1(C2=Cc3ccccc3C2)Cc2ccccc2C1O)c1ccccc1 (stereo not shown) [Compound III, 1-phenyl-2-((2′-iidenyl)-indan-2-ol)ethan-1-one] | – | 37.3 | – |
| O=C1c2ccccc2CC1(CC(O)c1ccccc1)C1=Cc2ccccc2C1 (stereo not shown) [Compound IV, 1-phenyl-2-((2′-iidenyl)-indan-2-one)ethan-1-ol] | – | 13.1 | – |
| C[C@@H]1C[C@H]2[C@@H]3CCC4=CC(=O)C=C[C@]4(C)[C@@]3(F)[C@@H](O)C[C@]2(C)[C@@]1(O)C(=O)CO [Dexamethasone, reference compound] | 41.6 | 54.0 | – |
